From US10946020B2, “Compositions and methods for treating cancer” (University of Virginia Patent Foundation, priority 2016, dated 2021)

How the values were obtained:
[1] = system: P70 S6K phosphorylation at T389/T421; test: dot-blot phospho-proteomics assay in U251; assay type: cell-based, human; settings: U251, 15 μM ritanserin, lysed at 24 hours
Procedure: (§1) Immunoblotting was performed as previously described. […] Antibodies were obtained from Cell Signaling Technology (Danvers, Mass., United States of America). Cells were lysed 24-72 hours post-treatment in 1× lysis buffer. The Human Phospho-Kinase Array kit (R&D Systems, Minneapolis, Minn., United States of America) was used to identify ritanserin targets. Immunoblots were performed with multiple replicates.
(§2) A dot-blot proteomics assay was used to investigate ritanserin downstream targets. U251 treated with 15 μM ritanserin were lysed at 24 hours. Several target proteins were substantially changed with ritanserin treatment. HSP60 decreased to 10% of baseline. Heat shock proteins are molecular targets in glioblastoma, and their loss prevents the unfolded protein response. See Ampie et al., 2015. HIF-1a and possibly mTOR up-regulate HSP60. P70 S6K phosphorylation at T389/T421 was decreased, as expected given DGKα activation of mTOR.

HSP60 = test: dot-blot phospho-proteomics assay in U251; assay type: cell-based, human; settings: U251, 15 μM ritanserin, lysed at 24 hours
Procedure: as §1, §2

[2] = molecular target: serotonin (5-hydroxytryptamine, 5-HT) subtype 5-HT2; settings: read-out: Ki as 5-HT2 antagonist; cited from earlier work
GL261 mouse glioma cells = test: syngeneic intracranial GL261 glioma model; assay type: in vivo, C57BL/6 mice
Procedure: (§3) Intracranial surgical implantation of tumor was as previously described. See Kefas et al., 2013. In brief, 400,000 U251 human glioblastoma or 50,000 GL261 mouse glioma suspended in 4 μL of serum-free DMEM were injected into anesthetized mice through a burr hole placed […] to the bregma. Treatment for 8-9 mice per group began 6-7 days post-tumor implantation via oral gavage and continued daily. Magnetic resonance images were taken at 3 weeks post-tumor implantation to assess tumor volume, and volumes were calculated as previously described. See Kefas et al., 2013. Mice were euthanized at 20% weight loss or with the first sign of neurological impairment.
(§4) DGKα inhibition decreases T-cell anergy. Thus, it is believed that a syngeneic, immunocompetent tumor model could show a stronger survival benefit. GL261 mouse glioma cells were implanted intracranially and treatment begun six days later. Ritanserin improved median survival to 64 days versus 36 days with vehicle. […] Ritanserin treatment also yielded decreases in tumor size and prolonged survival in other cell lines and xenograft models.

NF-κB = NF-κB luciferase assay; assay type: cell-based; settings: two mesenchymal GBM cell lines (G2, G88)
Procedure: (§5) Since radiation is a frontline treatment for GBM, the combination of ritanserin treatment and radiotherapy was tested. The radiosensitization of two different mesenchymal GBM stem cells, including a radioresistant cell type (i.e., G88 cells) is shown in FIGS. 9A and 9B. […] Chou-Talalay analysis indicated synergy. Ritanserin treatment also appears to affect downstream regulators of the radiation response. NF-κB has been indicated as a factor in radioresistance. Thus, the effect of ritanserin on NF-κB expression was also measured in two mesenchymal GBM cell lines using a NF-κB luciferase assay.

B16 melanoma line = test: cell growth suppression, live cell count; assay type: cell-based; settings: Mus musculus, B16, 96 h; single dose, live cells four days post-treatment
[3] = system: mesenchymal GBM cell lines; test: ritanserin treatment of 11 GBM cell lines of various sub-types; assay type: cell-based; settings: in vitro
Excerpt: (§6) Glioblastomas can be categorized into four different subtypes based on gene expression patterns and clinical characterization. […] In particular, median survival increased from 17.5 days to 28.5 days in mice with xenografts from a G88 mesenchymal GBM stem cell line.

mTOR promoter = mTOR promoter reporter dual luciferase assay; assay type: cell-based, human; settings: U251 and VMM39, 20 μM ritanserin vs vehicle
Procedure: (§7) mTOR promoter reporter-RLuc or HIF-1α binding site-FLuc plasmids were transfected into serum-starved U251 and VMM39 one day after cell plating at 60-80% confluency using Fugene HD at 3:1 (Promega Corporation, Fitchburg, Wis., United States of America). Cells were fed several hours post-transfection and ritanserin was added. Cells were lysed after 36-48 hours and assayed with the Dual-Luciferase Reporter assay system kit (Promega Corporation, Fitchburg, Wis., United States of America) and Promega GloMax® 20/20 luminometer (Promega Corporation, Fitchburg, Wis., United States of America). Results were double-normalized using control empty vectors pRL and pGL3.
(§8) To compare to previous findings that DGKα inhibition affects mTOR transcription, U251 and VMM39 were transfected with an mTOR promoter reporter and treated with ritanserin or vehicle. […] Ritanserin therefore appears to mimic R59022's effects on known DGKα targets in the mTOR and HIF-1α signaling pathways. See Dominguez et al., 2013.

[4] = system: geranylgeranyltransferase type 1 (GGTase I); test: unprenylated Rap1A immunoblot; assay type: cell-based; settings: various GBM cells
Excerpt: (§9) Further, based on increases in unprenylated ras-related protein Rap1A in various GBM cells, it appears that ritanserin inhibits geranylgeranyltransferase type 1 (GGTase I).

VMM39 melanoma line = test: cell growth suppression, live cell count; assay type: cell-based; settings: Homo sapiens, VMM39, 96 h; single dose, live cells four days post-treatment
DGKα = DGKα (Homo sapiens, UniProt P23743); test: DGKα kinase assay with liposomes and purified enzyme; assay type: biochemical; settings: purified enzyme, liposomes; highest drug concentration 100 μM
Chain of DGKα (P23743 whole entry, species assumed): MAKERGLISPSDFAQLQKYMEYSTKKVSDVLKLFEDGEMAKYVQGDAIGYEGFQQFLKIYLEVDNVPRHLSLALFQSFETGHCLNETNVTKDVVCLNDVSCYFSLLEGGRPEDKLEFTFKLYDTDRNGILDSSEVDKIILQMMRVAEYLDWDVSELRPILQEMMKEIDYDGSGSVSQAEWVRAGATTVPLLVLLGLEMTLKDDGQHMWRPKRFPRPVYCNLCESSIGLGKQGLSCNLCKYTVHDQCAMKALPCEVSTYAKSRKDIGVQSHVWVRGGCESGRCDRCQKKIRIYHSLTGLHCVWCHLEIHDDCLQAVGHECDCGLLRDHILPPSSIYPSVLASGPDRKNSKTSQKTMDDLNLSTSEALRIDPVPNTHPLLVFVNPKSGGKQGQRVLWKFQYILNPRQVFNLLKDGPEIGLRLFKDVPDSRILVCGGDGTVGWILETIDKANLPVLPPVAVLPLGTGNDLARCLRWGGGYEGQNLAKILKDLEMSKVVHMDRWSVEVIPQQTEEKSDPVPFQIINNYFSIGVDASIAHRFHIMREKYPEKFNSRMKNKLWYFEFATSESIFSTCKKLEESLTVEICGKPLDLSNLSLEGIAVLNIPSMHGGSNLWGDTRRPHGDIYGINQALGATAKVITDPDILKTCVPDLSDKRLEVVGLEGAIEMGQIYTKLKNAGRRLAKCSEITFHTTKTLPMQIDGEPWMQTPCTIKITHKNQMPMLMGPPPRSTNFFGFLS
Procedure: To obtain purified protein, 293T cells were cultured in DMEM containing 5% fetal calf serum and 1% penicillin/streptomycin (GIBCO™, Thermo Fisher Scientific, Waltham, Mass., United States of America). The cells were transiently transfected with 40 μg of pcDNA3-FLAG-DGKα plasmid/plate. The transfection was done using lipofectamine 2000 at a 2:1 ratio of DNA:lipofectamine. The cells were harvested and homogenized in lysis buffer (10 mM Na2HPO4, pH 7.4, 50 mM β-glucopyranose, 50 mM NaF, 1 mM EDTA, 1 mM EGTA, 0.02% Triton X-100, phenylmethylsulfonyl fluoride, leupeptine, and pepstatin). The cell homogenate was centrifuged at 16,000×g at 4° C. for 10 minutes. The supernatant was immunoprecipitated with anti-FLAG (M2) beads for 2 hours at 4° C. The beads were packed onto a screening column and washed five times with the lysis buffer. The protein was eluted with five successive 200 μl fractions of 0.5 mg/ml of FLAG peptide (LifeTein, LLC, Somerset, N.J., United States of America). The elution fractions containing DGKα were combined and dialyzed three times against 10 mM Na2HPO4 (pH 7.4), and 50 mM β-glucopyranose, 50 mM NaF, 1 mM EDTA, and 1 mM EGTA. The purified DGKs were quantified with UV absorbance and by comparing DGKα bands with bovine serum albumin standards on Coomassie-blue stained SDS-PAGE gels. […]

[5] = system: lung (A549) and pancreatic (MPanc-96) carcinoma cells; test: ritanserin sensitivity after epithelial-mesenchymal transition; assay type: cell-based; settings: EMT induced with TNF-alpha and TGF-beta; 15 μM (lung), 10 μM (pancreatic)
Excerpt: Thus it appears that the mesenchymal cancer phenotype can be preferentially targeted with ritanserin in GBM and in other cancers, as well.

p53 S15 = test: immunoblot of p53 S15 phosphorylation; assay type: cell-based, human; settings: extracts from U251 and VMM39 cell lines
Procedure: as §1
Decreased p53 S15 can cause chemosensitization to other cytotoxic reagents. p53 is hyper-phosphorylated after serine 15 phosphorylation in DNA-damaged cells as an […], pro-transcriptional pathway, and antagonism of S15 phosphorylation is associated with increasing sensitivity to DNA-damaging agents. See Loughery et al., 2014; and Wittlinger et al., 2007. Immunoblots of extracts from both U251 and VMM39 cell lines confirmed that ritanserin decreases S15 phosphorylation.

[6] = system: mesenchymal GBM stem cells (G2, G88); test: radiosensitization, soft agar colony assay; assay type: cell-based; settings: 1.25 μM ritanserin, 4 Gy radiation, colonies after two weeks
Procedure: as §5

[7] = previous studies (Leysen et al., 1985); cited from earlier work
[8] = system: U251 GBM and VMM39 melanoma cell lines; test: Annexin V cell death assay (flow cytometry); assay type: cell-based, human; settings: compared to controls
Procedure: (§10) Single dye controls were used for compensation. […] Experiments were repeated several times per cell type.
To determine the mechanism of ritanserin cytotoxicity, ritanserin-treated cells were assayed for Annexin V-positivity as well as cellular permeability (with DNA dye 7-AAD).

[9] = system: JWL578 GBM stem cell line; test: cell growth suppression, live cell count; assay type: cell-based; settings: Homo sapiens, 96 h; single dose, live cells four days post-treatment
Procedure: as §10
(§11) Several cancer cell lines were tested in vitro to determine whether ritanserin was cytotoxic. A single dose of ritanserin was sufficient to suppress cell growth in GBM lines U251 (human), GL261 (mouse), and JWL578 (human GBM stem cell line) with IC50s 5-10 μM, very similar to previous results with R59022. See also, Dominguez et al., 2013. […] Data from alamarBlue assays, a measure of cellular viability, provided similar IC50s. Immortalized astrocytes were viable above 20 μM ritanserin.

GL261 GBM line = test: cell growth suppression, live cell count; assay type: cell-based; settings: Mus musculus, GL261, 96 h; single dose, live cells four days post-treatment
Procedure: as §10, §11

U251 GBM line = test: cell growth suppression, live cell count; assay type: cell-based; settings: Homo sapiens, U-251, 96 h; single dose, live cells four days post-treatment
Procedure: as §10, §11

HIF-1α = HIF-1α binding site reporter dual luciferase assay; assay type: cell-based, human; settings: U251, 20 μM ritanserin vs vehicle
Procedure: as §7, §8

[10] = system: VMM39 human melanoma cells; test: subcutaneous melanoma tumor model; assay type: in vivo, athymic nu/nu mice; settings: 50 mg/kg, compared to vehicle and 10 mg/kg ritanserin
Procedure: For subcutaneous tumors, 250,000 VMM39 human melanoma cells were injected subcutaneously into the left flank. After two weeks, tumors were measured daily using electronic calipers and tumor volume calculated. Mice were euthanized when tumors were greater than […] in any dimension or greater than 1000 mm^3 in volume.
as §4

[11] = system: G88 mesenchymal GBM stem cell line; test: intracranial G88 mesenchymal GBM stem cell xenograft survival; assay type: in vivo, mice; settings: 50 mg/kg daily, started six days after implantation; vehicle 17.5 days
Procedure: as §3, §6

[12] = system: U251 human glioblastoma cells; test: orthotopic intracranial U251 xenograft survival; assay type: in vivo, athymic nu/nu mice; settings: 50 mg/kg daily oral gavage, started one week after injection
Procedure: as §3
Athymic nu/nu mice were injected with U251 cells and one week later began daily oral gavage treatment.

RhoA = RhoA ELISA; assay type: cell-based; settings: G2 and G88 mesenchymal GBM cells
Excerpt: as §9

Immortalized astrocytes = test: viability of immortalized astrocytes; assay type: cell-based
Excerpt: as §10

[13] = previous studies; cited from earlier work
[14] = system: G2 mesenchymal GBM stem cell line; test: intracranial G2 mesenchymal GBM stem cell xenograft survival; assay type: in vivo, mice; settings: 50 mg/kg daily oral gavage vs vehicle

For Cc1nc2sccn2c(=O)c1CCN1CCC(=C(c2ccc(F)cc2)c2ccc(F)cc2)CC1 [ritanserin, 6-[2-[4-[bis(4-fluorophenyl)methylidene]piperidin-1-yl]ethyl]-7-methyl-[1,3]thiazolo[3,2-a]py-rimidin-5-one], the “P70 S6K phosphorylation at T389/T421” value [1] is given as “decreased”, the HSP60 level (HSP60) is given as 10 % of baseline and the Ki [2] is given as 0.00039 µM. For the same compound, the median survival (GL261 mouse glioma cells; 50 mg/kg daily oral, started six days after implantation, vehicle 36 days) was 64 days, the “tumor size by magnetic resonance imaging” value (GL261 mouse glioma cells; three weeks after implantation, vs vehicle) was “decreased tumor size” and the NF-κB expression (NF-κB) was “decreased NF-κB expression”. The IC50 (B16 melanoma line) was 10 to 15 µM, the “sensitivity of mesenchymal GBM cell lines relative to other subtypes” value [3] was “three to four times more sensitive” and the mTOR promoter activity (mTOR promoter) was “strongly decreased”. For the same compound, the “GGTase I inhibition inferred from unprenylated Rap1A” value [4] was “inhibits”, the IC50 (VMM39 melanoma line) was 10 to 15 µM and the IC50 (DGKα) was 9 µM. For the same compound, the “sensitivity to ritanserin after EMT” value [5] was “more sensitive”, the “p53 S15 phosphorylation” value (p53 S15) was “decreases” and the “radiosensitization, colony number” value [6] was “clear radiosensitization effect”. For the same compound, the brain exposure [7] was “reach the brain in meaningful concentrations”, the “Annexin V positivity” value [8] was “increased Annexin V” and the IC50 [9] was 5 to 10 µM. For the same compound, the IC50 (GL261 GBM line) was 5 to 10 µM, the IC50 (U251 GBM line) was 5 to 10 µM and the HIF-1α reporter activity (HIF-1α) was “loss of HIF-1α reporter activity”. The tumor formation [10] was “delayed tumor formation”, the median survival [11] was 28.5 days and the survival [12] was “increased survival significantly”. The RhoA expression (RhoA) was “inhibit RhoA expression”, the “ritanserin concentration at which astrocytes were viable” value (Immortalized astrocytes) was “above 20 μM” and the oral bioavailability [13] was “orally bioavailable”. The median survival [14] was “increased”.
Cc1nc2sccn2c(=O)c1CCN1CCC(=C(c2ccccc2)c2ccc(F)cc2)CC1 [R59022] showed an IC50 (DGKα) of 20 µM.
